For one compound, Selectivity index and IC50 results are on record in article PMC9091416 (RSC Advances, 2018).

Experiment in all cases: cells
One assay relates to HCT-116 cells. The format is cell-based, human.
A further assay has as its system DLD1 cells. Format: cell-based. As to conditions: Homo sapiens, DLD-1, read-out: IC50 (μM) ± SD (μM), DLD1.
The test system of the next assay is NCM460 cells. The format is cell-based. As to conditions: Homo sapiens, NCM460, read-out: IC50 (μM) ± SD (μM), NCM460.
In the next assay the test system is RKO cells. Format: cell-based. The following applies: Homo sapiens, read-out: IC50 (μM) ± SD (μM), RKO.

Structures are written as SMILES.

`CC(=O)OC[C@H]1OC(OC(C)=O)[C@H](n2cc(C(=O)NC3([As](O)O)C=CC=CC3)nn2)[C@@H](OC(C)=O)[C@@H]1OC(C)=O` (stereo partly drawn) [Compound 8, 1-(1-(1,3,4,6-tetra-O-acetyl-2-deoxy-D-glucopyranos-2-yl) -1H-1,2,3-triazole-4-carboxamido)phenyl arsonous acid]: the Selectivity index in the assay on HCT-116 cells turned out to be 0.91. Further, the IC50 with HCT-116 cells (Homo sapiens, HCT-116, read-out: IC50 (μM) ± SD (μM), HCT-116) turned out to be 17.7 ± 1.44 µM; in the assay on DLD1 cells, 15 ± 2.72 µM; in the assay with NCM460 cells it was 16.1 ± 2.21 µM; with RKO cells it was 4.57 ± 0.17 µM.
